The values below come from US5650394A, “Use of urinastatin-like compounds to prevent premature delivery” (Adeza Biomedical, priority 1993, dated 1997).

Experiment [1] can be described thus: Example 2 clinical comparison of regimens in 168 patients with imminent premature delivery. The format is in vivo, human. As to the method: 168 patients in their 24th to 35 week of pregnancy were diagnosed with imminent premature delivery. The diagnosis of imminent premature delivery was based on a tocolysis index of 2 or greater. Factors of cervical dilation, ruptured membranes, uterine activity and vaginal bleeding were considered for the tocolysis index. The index is the sum of these points.
A number of regimens were compared. Group 1 received ritodrine intravenous infusion at 50-300 μg per day. Groups 2 and 3 were given daily urinastatin suppositories containing 5000 units and 1000 units, respectively. Group 4 received IV ritodrine at 50-300 μg per day and one 1000 unit urinastatin suppository per day. Group 5 received IV ritodrine at 50-300 μg per day, one 1000 unit urinastatin suppository per day, and cephalosporin. The patients were treated until they delivered.
The tocolysis index immediately before the start of treatment varied from 2-8. Elastase levels obtained from specimen of endocervical secretions were determined at admission to the study. "Hours to Neg UA", or the time until the number of uterine contractions in 30 minutes decreased to one or less, was reported. "Recur UA", or the proportion of women experiencing recurrence of at least one uterine contraction every 30 minutes after therapy lasting 4 days or longer was discontinued also was observed. "EGA Toco" is the estimated gestational age at the beginning of therapy. "EGA Del" is the estimated gestational age at delivery. The "interval" is the number of weeks between EGA Toco and EGA Del. "PTD<37 Wks" is the number of preterm births before 37 weeks. "PTD<34 Wks" is the number of preterm births before 34 weeks, or seriously premature infants.

The conditions of experiment [2]: cited from earlier work; for time required for the number of uterine contractions (UC) to decrease to less than 1 per 30 minutes: 24th-35th weeks of pregnancy, tocolysis index 3-4, no PROM.
Another experiment concerns granulocyte elastase. The following applies: patients treated with urinastatin (groups B, C and D); cited from earlier work.

In the case of `CC(NCCc1ccc(O)cc1)C(O)c1ccc(O)cc1` (stereo not shown) [ritodrine], the “preterm deliveries of less than 34 wk, share of all deliveries” value in experiment [1] (PTD<34 Wks) was “approximately 21%”. For the same molecule, the “preterm deliveries of less than 37 wk, share of all deliveries” value in experiment [1] (PTD<37 Wks) is recorded as around 42%. Further, the “rate of recurrence of uterine activity” value in experiment [1] (in spite of continuous administration of the drug) is “over 30%”. The “Hours to Neg UA: time until uterine contractions in 30 minutes decreased to one or less” value in experiment [1] (study average 3.1 hr) worked out at 1.4 h. In addition, the “patients with recurrence of UC after therapy was discontinued” value in experiment [2] (therapy discontinued when UC had been depressed for 4 days) was “Approximately 60%”. In addition, the “time required for the number of uterine contractions (UC) to decrease to less than 1 per 30 minutes” value in experiment [2] (women) was “about an hour”. The “women with premature deliveries” value in experiment [2] (women, 24th-35th weeks, tocolysis index 3-4) is 25%.

B1: urinastatin (protein, UniProt P02760 206-352, looked up)
Inter-alpha-trypsin inhibitor …: AVLPQEEEGSGGGQLVTEVTKKEDSCQLGYSAGPCMGMTSRYFYNGTSMACETFQYGGCMGNGNNFVTEKECLQTCRTVAACNLPIVRGPCRAFIQLWAFDAVKGKCVLFPYGGCQGNGNKFYSEKECREYCGVPGDGDEELLRFSN
modifications: Inter-alpha-trypsin inhibitor light chain
notes: glycoprotein of less than about 67 kD purified from human urine
For the molecule B1, the “premature deliveries (number of patients)” value in experiment [2] (groups B and D had 9 and 8 patients, group C 14) is “no premature deliveries”. Moreover, in experiment [2] (women), the “time required for the number of uterine contractions (UC) to decrease to less than 1 per 30 minutes” value is recorded as “about 6 hours”. For the same molecule, the “elastase in vaginal secretions” value with granulocyte elastase is listed as “decreased”.
